Data taken from patent publication US20240208961A1, “EIF4E INHIBITORS AND USES THEREOF” (PIC Therapeutics, Inc., priority 2022, published 2024).
Several values for one entry are separate records, joined by “and”; a condition that tells them apart may be missing. Equal values may be shown once. Read-outs that look alike come from different tables or passages of the source.

Tests used:
[1] = Pharmacokinetic studies of certain compounds in female Balb/c mice (Example 5); format: in vivo; settings: I-1 PO 30 mg/kg
Procedure: Pharmacokinetic studies were performed using Balb/c mice, 15-20 g, 6-9 weeks, female, N=9, purchased from Jihui Laboratory Animal Co. LTD. For compound I-29, Balb/c mice, 19-21 g, 9-11 weeks, female, N=9, were used. The mice were fasted overnight and fed at 4 h post dosing.
Animals were dosed via oral gavage (PO) or tail vein injection (IV) with compound. Sampling occurred at 0.083, 0.25, 0.5, 1, 2, 4, 8, and 24 h post dose (8 time points). The animals were restrained manually at the designated time points. Approx. […] of blood was taken from the animals via facial vein for semi-serial bleeding into tubes with K2EDTA. Blood samples were put on ice and centrifuged at 4° C. (2000 g, 5 min) to obtain plasma within 15 min after sample collection. Plasma samples were stored in dry ice temporarily and at approximately −70° C. until analysis.
For oral gavage, the compound was dosed as a suspension in 1% sodium carboxymethyl cellulose (CMC) and 0.2% Tween 80 in water. For 23.8 mg/kg and 30 mg/kg doses, 3 mg/mL was used; for 50 mg/kg doses, 5 mg/mL was used; and for 100 mg/kg doses, 10 mg/mL was used.
For IV administration, the compound was dosed as a solution in 5% DMSO, 5% Solutol HS15 and 90% saline. For 1 mg/kg and 1.48 mg/kg doses, 0.2 mg/mL was used.
Plasma samples were analyzed using LC-MS using a calibration curve of known concentrations.
The results of these studies are summarized in Tables 11-21 below and in FIGS. 2-8. […] BQL=below quantifiable limit for compound in female Balb/c mouse plasma samples. NA=not available. PK parameters were estimated by non-compartmental model using WinNonlin 8.2. If the adjusted rsq (linear regression coefficient of the concentration value on the terminal phase) was less than 0.9, T1/2 might not have been accurately estimated. F value was determined by the following equation: • If AUClast/AUCINF>80%:
F=(AUCINF-EX×DOSEIV)/(AUCINF-IV×DOSEEX)[…] • If AUClast/AUCINF<80% or AUCINF not available:
F=(AUClast-EX×DOSEIV)/(AUClast-IV×DOSEEX)*1000

Human eIF4E (aa 28-217) = target: T1, Human eIF4E (aa 28-217) (Homo sapiens, UniProt P06730); assay: 4G-eIF4E protein-based assay (TR-FRET, biotin labeled 4G2 peptide); format: binding
T1 construct: Human eIF4E (aa 28-217) with a C-terminal His-tag; made in house
Procedure: Human eIF4E ([…]) with a C-terminal His-tag was expressed in E. coli in inclusion bodies. The protein was solubilized with 8 M urea and purified under denaturing conditions using nickel-charged HisTrap HP columns (GE Healthcare). The purified protein was then refolded by diluting in 20 mM Hepes pH 7.0, 0.5 M NaCl, 1 mM DTT, […], 0.5 M arginine plus 6 M urea, and then dialyzing overnight into the same buffer without the urea. The protein was further dialyzed into 20 mM Hepes, pH 6.5, 50 mM NaCl, 1 mM EDTA, 1 mM DTT, and concentrated using Hitrap SP sepharose FF columns (GE Healthcare). The concentrated protein was dialyzed into 20 mM Hepes, pH 7.0, 0.5M NaCl, 5 mM DTT and […], and stored at -80° C. until use. Test compounds (3.43 mM stock in DMSO) were diluted 2-fold in series in DMSO (10 concentration points). Compound solutions (1.2 μL/well) were added into black 384-well polypropylene microplates (Matrix, Thermal Scientific). […] The samples were incubated at room temperature (20-23° C.) for 4 hours. Biotin labeled 4G2 peptide ([…])-NH2, 1.75 μM stock in DMSO) was diluted to 0.13 μM in Assay Buffer (without DTT) and 5 μL/well was added. The samples were incubated at room temperature for 20 min. Five microliters per well of 15 nM Eu-streptavidin (Eu-SA, Perkin Elmer) and 96 nM Allophycocyanin (APC)-anti His antibody (Columbia Biosciences) in Assay Buffer (without DTT) were then added and the samples were incubated at room temperature for 20 min. Assay signals were monitored by reading excitation at 340 nm and emission fluorescence at 615 nm and 665 nm on an Envision reader (Perkin Elmer). Normalized TR-FRET (time-resolved fluorescence resonance energy transfer) assay signal (Rn) was calculated by the formula: […] C=(Ac-Ba)/(Dc-Bd) • Where Ac is the fluorescence intensity of 1.5 nM Eu-SA in the assay buffer at 665 nm. IC50 values were calculated using xLFit program (IDBS).

[2] = 24 hr, BQL = below quantifiable limit of 1 ng/mL

T1 sequence (P06730 28-217): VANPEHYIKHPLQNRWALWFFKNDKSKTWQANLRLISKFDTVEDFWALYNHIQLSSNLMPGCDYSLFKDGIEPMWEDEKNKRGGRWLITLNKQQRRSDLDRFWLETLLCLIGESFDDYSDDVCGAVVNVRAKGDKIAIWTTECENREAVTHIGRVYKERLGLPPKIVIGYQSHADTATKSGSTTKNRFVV

Plasma concentration Individual ([1]; 0.083 hr, 30 mg/kg): 96.9 ng/mL and 51.8 ng/mL and 106 ng/mL | Plasma concentration Individual ([1]; 0.25 hr, 30 mg/kg): 467 ng/mL and 432 ng/mL | Plasma concentration Individual ([1]; 0.5 hr, 30 mg/kg): 464 ng/mL and 421 ng/mL | Plasma concentration Individual ([1]; 1 hr, 30 mg/kg): 592 ng/mL and 498 ng/mL | Plasma concentration Individual ([1]; 2 hr, 30 mg/kg): 367 ng/mL and 222 ng/mL | Plasma concentration Individual ([1]; 4 hr, 30 mg/kg): 130 ng/mL and 153 ng/mL | Plasma concentration Individual ([1]; 8 hr, 30 mg/kg): 78.9 ng/mL and 6.72 ng/mL and 12.2 ng/mL | Plasma concentration Individual [1, 2]: BQL | Plasma concentration Mean [1, 2]: BQL | concentration at 0.083 hr ([1]; female, Balb/c, mouse, plasma, po, 30 mg/kg, 0.083 hr, read-out: Plasma concentration Mean): 84.9 ng/mL | concentration at 0.25 hr ([1]; female, Balb/c, mouse, plasma, po, 30 mg/kg, 0.25 hr, read-out: Plasma concentration Individual): 383 ng/mL | concentration at 0.25 hr ([1]; female, Balb/c, mouse, plasma, po, 30 mg/kg, 0.25 hr, read-out: Plasma concentration Mean): 427 ng/mL | concentration at 0.5 h ([1]; female, Balb/c, mouse, plasma, po, 30 mg/kg, 0.5 hr, read-out: Plasma concentration Individual): 397 ng/mL | concentration at 0.5 h ([1]; female, Balb/c, mouse, plasma, po, 30 mg/kg, 0.5 hr, read-out: Plasma concentration Mean): 427 ng/mL | concentration at 1 h ([1]; female, Balb/c, mouse, plasma, po, 30 mg/kg, 1 hr, read-out: Plasma concentration Individual): 320 ng/mL | concentration at 1 hr ([1]; female, Balb/c, mouse, plasma, po, 30 mg/kg, 1 hr, read-out: Plasma concentration Mean): 470 ng/mL | concentration at 2 hr ([1]; female, Balb/c, mouse, plasma, po, 30 mg/kg, 2 hr, read-out: Plasma concentration Individual): 376 ng/mL | concentration at 2 hr ([1]; female, Balb/c, mouse, plasma, po, 30 mg/kg, 2 hr, read-out: Plasma concentration Mean): 322 ng/mL | concentration at 4 hr ([1]; female, Balb/c, mouse, plasma, po, 30 mg/kg, 4 hr, read-out: Plasma concentration Individual): 193 ng/mL | concentration at 4 hr ([1]; female, Balb/c, mouse, plasma, po, 30 mg/kg, 4 hr, read-out: Plasma concentration Mean): 159 ng/mL | concentration at 8 hr ([1]; female, Balb/c, mouse, plasma, po, 30 mg/kg, 8 hr, read-out: Plasma concentration Mean): 32.6 ng/mL | AUC(0-inf) ([1]; mouse, plasma): 1720 ng·h/mL | AUC(0-t) ([1]; mouse, plasma): 1640 ng·h/mL | Cmax ([1]; mouse, plasma): 470 ng/mL | MRT inf ([1]; mouse, plasma): 2.76 h | MRT last ([1]; mouse, plasma): 2.35 h | Tmax ([1]; mouse, plasma): 1 h | half-life ([1]; mouse, plasma): 1.81 h | IC50 (Human eIF4E (aa 28-217)): 500 to 1000 nM
Structure (SMILES): CC(C)Cc1sc(Nc2ncc(-c3cccs3)cc2C(=O)O)nc1C1=CCOCC1 [Compound I-1]
